These results are taken from patent US10294202B2, “Pyrrolidinones as herbicides” (FMC Corporation, priority 2013, dated 2019).

For one assay, the system named is kochia. In words: Test E preemergence herbicide test. Format: in vivo, Kochia scoparia. Further details: key: 0 = no effect, 100 = complete control. Put shortly: (§1)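 Greenhouse preemergence test: seeds sown into silt loam received compound in a non-phytotoxic solvent mixture with surfactant. Plants grew 21 days before visual comparison with controls. Scores run from 0, no effect, to 100, complete control.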

For the next assay, the system named is wild poinsettia. In words: Test E preemergence herbicide test. Also on record: key: 0 = no effect, 100 = complete control. It counts as in vivo, Euphorbia heterophylla. Put shortly: as §1
The next assay deals with oat, wild. In words: Test D pre-/postemergence herbicide test. Format: in vivo, Avena fatua. The following applies: Preemergence, scale 0 to 100 (0 no effect, 100 complete control). Summed up:
(§2)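 Visual ratings from 0 (no effect) to 100 (complete control) were made against untreated controls 7 to 21 days after treatment. Application was both preemergence, on silt loam soil, and postemergence, to 1- to 4-leaf plants 2-18 cm tall; compounds were formulated in a non-phytotoxic surfactant-containing solvent.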

The test system of another assay is buckwheat, wild. In words: Test D pre-/postemergence herbicide test. Format: in vivo, Polygonum convolvulus. The conditions noted are these: Preemergence; for Plant response rating, Buckwheat, Wild: scale 0 to 100 (0 no effect, 100 complete control); for Plant response rating: 250 g ai/ha, Buckwheat, Wild, scale 0 to 100. Summed up:
as §2

In the next assay the test system is galium. In words: Test D pre-/postemergence herbicide test. Format: in vivo, Galium aparine. The following applies: Preemergence; for Plant response rating, Galium: scale 0 to 100 (0 no effect, 100 complete control); for Plant response rating: 250 g ai/ha, Galium, scale 0 to 100. Put shortly: as §2

For `O=C1NC[C@H](c2cccc(C(F)(F)F)c2)[C@H]1C(=O)Nc1ccccc1F` [Compound 204, (3R,4S)—N-(2-fluorophenyl)-2-oxo-4-[3-(trifluoromethyl)phenyl]-3-pyrrolidinecarboxamide], the “Plant response rating, Kochia” value in the assay with kochia (31 g ai/ha) was determined as 0; in the assay with kochia (62 g ai/ha) it was 0; with kochia (125 g ai/ha), 90; with kochia (250 g ai/ha), 40. The “Plant response rating, Poinsettia, Wild” value in the assay with wild poinsettia (31 g ai/ha) amounted to 0; in the assay on wild poinsettia (62 g ai/ha), 0; in the assay with wild poinsettia (125 g ai/ha), 20; in the assay with wild poinsettia (250 g ai/ha), 20. In addition, the “Plant response rating, Oat, Wild” value with oat, wild (62 g ai/ha) is 25; with oat, wild (125 g ai/ha), 60; with oat, wild (31 g ai/ha), 0; in the assay on oat, wild (250 g ai/ha), 40. In addition, the “Plant response rating, Buckwheat, Wild” value in the assay with buckwheat, wild (62 g ai/ha) is given as 25; in the assay with buckwheat, wild (125 g ai/ha) it was 25; in the assay on buckwheat, wild (31 g ai/ha), 20. For the same compound, the Plant response rating with buckwheat, wild is 25; in the assay on galium, 25. The “Plant response rating, Galium” value with galium (62 g ai/ha) came to 10; with galium (125 g ai/ha) it was 10; in the assay with galium (31 g ai/ha) it was 0.
As for `O=C1NC[C@H](c2cccc(C(F)(F)F)c2)[C@H]1C(=O)Nc1cccc(F)c1F` [Compound 206], the “Plant response rating, Kochia” value in the assay on kochia (31 g ai/ha) is listed as 0; with kochia (62 g ai/ha) it was 0; in the assay with kochia (125 g ai/ha), 50; with kochia (250 g ai/ha), 80. The “Plant response rating, Poinsettia, Wild” value with wild poinsettia (31 g ai/ha) was 0; in the assay on wild poinsettia (62 g ai/ha), 10; with wild poinsettia (125 g ai/ha), 0; in the assay with wild poinsettia (250 g ai/ha), 25. Besides, the “Plant response rating, Oat, Wild” value in the assay with oat, wild (62 g ai/ha) is on record as 35; in the assay on oat, wild (125 g ai/ha), 40; with oat, wild (31 g ai/ha), 25; in the assay with oat, wild (250 g ai/ha) it was 55. Moreover, the “Plant response rating, Buckwheat, Wild” value is on record as 65 in the assay on buckwheat, wild (62 g ai/ha); 50 in the assay with buckwheat, wild (125 g ai/ha); 45 with buckwheat, wild (31 g ai/ha). Besides, the Plant response rating is recorded as 55 in the assay with buckwheat, wild and 80 in the assay with galium. In addition, the “Plant response rating, Galium” value in the assay with galium (62 g ai/ha) came to 40; in the assay on galium (125 g ai/ha) it was 50; with galium (31 g ai/ha) it was 10.
